Reference: PubChem BioAssay (NCI)
“And” between values parts separate entries of the source, which are not always exact repeats. Equal values may be shown once.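 All cell lines were grown in 96-well plates and treated with compound for 48 hours. GI50 is the concentration that inhibits growth by half. The concentration for full growth arrest is given as TGI.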

How the values were obtained:
Assay in all cases: growth of human tumour cells (NCI), 48 h
CAKI-1 renal = test system: CAKI-1 renal
HOP-92 NSCLC = test system: HOP-92 NSCLC
HT29 colon = test system: HT29 colon
K-562 leukemia = test system: K-562 leukemia
MDA-MB-231 breast = test system: MDA-MB-231 breast
MDA-MB-435 = test system: MDA-MB-435
NCI-H460 lung = test system: NCI-H460 lung
SF-295 CNS = test system: SF-295 CNS
SNB-19 CNS = test system: SNB-19 CNS
UACC-62 melanoma = test system: UACC-62 melanoma

| SMILES | TGI (CAKI-1 renal) [µM] | TGI (HOP-92 NSCLC) | TGI (HT29 colon) | TGI (K-562 leukemia) [µM] | TGI (MDA-MB-231 breast) | TGI (MDA-MB-435) | TGI (NCI-H460 lung) [µM] | TGI (SF-295 CNS) | TGI (SNB-19 CNS) [µM] | TGI (UACC-62 melanoma) | GI50 (MDA-MB-231 breast) [µM] | GI50 (SF-295 CNS) [µM] | GI50 (SNB-19 CNS) [µM] | GI50 (UACC-62 melanoma) [µM] | GI50 (CAKI-1 renal) [µM] | GI50 (HOP-92 NSCLC) [µM] | GI50 (HT29 colon) [µM] | GI50 (K-562 leukemia) [µM] | GI50 (MDA-MB-435) [µM] | GI50 (NCI-H460 lung) [µM] |
| --- | --- | --- | --- | --- | --- | --- | --- | --- | --- | --- | --- | --- | --- | --- | --- | --- | --- | --- | --- | --- |
| Cc1cc(N(CCOS(C)(=O)=O)CCOS(C)(=O)=O)ccc1C=Nc1ccc(-c2csc(-c3ccc(Br)cc3)n2)cc1 | 3.96 | 38.3 µM | 44.6 µM | > 97.1 | 39.2 µM | 58.8 µM | 12.7 | 50.5 µM | > 88.1 | 22.3 µM | – | – | – | – | – | – | – | – | – | – |
| O=C(O)CCSC(=S)Nc1ccc([N+](=O)[O-])cc1 | > 100 | 68.9 µM | > 100 µM | > 63 | > 100 µM | 61.3 µM | > 100 | > 100 µM | > 100 | 46.7 µM | – | – | – | – | – | – | – | – | – | – |
| O=S(=O)(CCCCl)SCCCCl | > 100 | 78.3 µM | 62.5 µM | 47.5 | 69.4 µM | > 67.2 µM | > 100 | > 93.4 µM | > 100 | > 100 µM | – | – | – | – | – | – | – | – | – | – |
| CCCCCCNCCCNc1c2ccccc2nc2cccc([N+](=O)[O-])c12 | 0.271 | 0.0792 µM and 0.0693 µM | 0.0268 µM and 0.124 µM | 0.0212 | 0.0933 µM and 0.221 µM | 0.0226 µM and 0.0234 µM | 0.0218 | 0.059 µM and 0.422 µM | – | 0.131 µM and 0.0618 µM | 0.0151 | 0.0263 | 0.017 | 0.0181 | – | – | – | – | – | – |
| C=C(CN(C)C)C(=O)c1ccc(Oc2ccccc2)cc1 | 6.69 | > 25.5 µM | 34.3 µM | 12.5 | 15.5 µM | 10.3 µM | 51.6 | 38.3 µM | 28.8 | 13 µM | – | – | – | – | – | – | – | – | – | – |
| Cc1nn(C)c2cc(N(C)c3ccnc(Nc4cccc(S(N)(=O)=O)c4)n3)ccc12 | > 22.6 | > 25 µM | > 25 µM | > 25 | > 25 µM | > 25 µM | > 25 | > 25 µM | > 25 | > 22.7 µM | 8.03 | 10.1 | 13.2 | 5.94 | 7.17 | 4.39 | 6.1 | 2.13 | 6.12 | 7.87 |
| O=C(O)c1ccccc1Nc1ccc2nnc(-c3ccncc3)n2n1 | 11.7 | 35.8 µM | 24.2 µM | > 100 | 24.2 µM | 23.1 µM | 24 | 40.1 µM | 40.8 | 19.5 µM | 5.27 | 13.3 | 14.2 | 5.18 | 3.22 | 16.9 | 5.66 | 15.1 | 4.02 | 4.27 |
| COc1cc(N2CCC(N3CCN(C)CC3)CC2)ccc1Nc1ncc(Cl)c(Nc2ccccc2S(=O)(=O)C(C)C)n1 | 6.51 | 0.433 µM | 0.617 µM | 5.41 | 2.43 µM | 2.36 µM | 5.11 | 10.3 µM | 12.2 | 3.39 µM | 0.705 | 1.8 | 2.07 | 1.18 | 0.65 | 0.0476 | 0.0612 | 1.67 | 0.387 | 0.604 |
| O=C(NCCCCCCNC(=O)OCc1ccc2c(Cl)cc(Cl)c(O)c2n1)OCc1ccc2c(Cl)cc(Cl)c(O)c2n1 | 1.69 | 2.17 µM | 2.23 µM | – | 2.49 µM | 1.71 µM | 3.12 | 6.99 µM | 2.91 | 2.28 µM | 1.17 | 2.66 | 1.49 | 1.06 | 0.412 | 0.515 | 0.565 | 0.381 | 0.443 | 1.23 |
| Nc1nc(-c2ccc(Cl)cc2)cc(-c2ccccc2)c1-c1nc2ccccc2o1 | 28.6 | 6.18 µM | 39.1 µM | > 100 | 17.8 µM | 26.9 µM | > 100 | 35.6 µM | 44.6 | 30.7 µM | 5.02 | 15 | 18.6 | 15.8 | 12.2 | 2.19 | 5.99 | 3.69 | 9.45 | 3.98 |
| CC1=CC(=O)c2ccc(C)cc2C1=O | 14.9 | 4.2 µM | > 100 µM | > 100 | 24.2 µM | 5.78 µM | 32.4 | 31.6 µM | 30 | 21.9 µM | – | – | – | – | – | – | – | – | – | – |
| CCCCCC/C=C1\CCC(CN(C)C)C1=O (stereo not given) | 9.51 | 28.8 µM | 14.5 µM | 7.64 | 18 µM | 21.6 µM | 35.1 | 27 µM | 30.8 | 14.9 µM | – | – | – | – | – | – | – | – | – | – |
| Nc1nc(-c2ccccc2)cc(-c2ccc(Cl)cc2)c1-c1nc2ccccc2o1 | 38.6 | 6.83 µM | 31.7 µM | 29.3 | 18.9 µM | 35.3 µM | 23.6 | 37.7 µM | 37.9 | 30.6 µM | 6 | 20.5 | 17.7 | 16.6 | 22.9 | 1.7 | 12 | 10.9 | 17.6 | 7.44 |
| CCOCCOC[C@H]1CCCN(c2ccnc3sc(C(N)=O)c(N)c23)C1 | > 100 | > 100 µM | > 100 µM | > 100 | > 100 µM | > 100 µM | > 100 | > 100 µM | > 100 | > 100 µM | 58.7 | 10.4 | > 100 | 6.51 | 30.5 | 44.3 | > 100 | 8.44 | 29.8 | > 100 |
| COc1ccc2nc(-c3cc4c([nH]c5ccccc54)c(-c4ccc(F)c(F)c4)n3)[nH]c2c1 | 8.97 | 29.5 µM | 13 µM | 24.4 | 34 µM | 15.4 µM | 12.5 | – | > 100 | 10.2 µM | 10.4 | – | 8.57 | 2.76 | 2.41 | 5.96 | 3.74 | 3.35 | 3.69 | 2.97 |
